Assays:
[1] = instrument: DT, stepped-field
[2] = instrument: DT, single field, calibrated with Agilent tune mix (Agilent)
[3] = instrument: TW, calibrated with polyalanine
[4] = instrument: DT, stepped-field; remark: listed apart in the source

collision cross section (N2) ([1]; [M+H]+) [Å²]	collision cross section (N2) ([2]; [M+H]+) [Å²]	collision cross section (N2) ([1]; [M-H]-) [Å²]	SMILES	also measured
		165.34	CCCCCCCCCCCCCCC(=O)O [Pentadecanoic acid]	
	134		Cc1ncc(CO)c(CN)c1O [Pyridoxamine]	collision cross section (N2) ([3]; [M+H]+): 130 Å²; collision cross section (N2) ([4]; [M+H]+): 135.79 Å²; collision cross section (N2) ([4]; [M+Na]+): 148.49 Å²
		177.66	CCCCCCCCCCCCCCCCCC(=O)O [Stearic acid]	collision cross section (N2) ([2]; [M-H]-): 174.42 Å²
	118.5		O=c1cc[nH]c(=O)[nH]1 [Uracil]	collision cross section (N2) ([3]; [M+H]+): 115 Å²; collision cross section (N2) ([4]; [M+H]+): 126.98 Å²
		183.32	CCCCC/C=C\C/C=C\CCCCCCCCCC(=O)O [cis-11,14-Eicosadienoic acid]	
		184.29	CCCCCCCC/C=C\CCCCCCCCCC(=O)O [cis-Gondoic acid]	

The next lines start with the compound.

SMILES	collision cross section (N2) ([1]; [M+H]+) [Å²]	collision cross section (N2) ([2]; [M+H]+) [Å²]	collision cross section (N2) ([1]; [M-H]-) [Å²]	also measured
CC[C@H](C)[C@H](NC(=O)[C@H](Cc1ccc(O)cc1)NC(=O)[C@@H](NC(=O)[C@H](CCCN=C(N)N)NC(=O)[C@@H](N)CC(=O)O)C(C)C)C(=O)N[C@@H](Cc1cnc[nH]1)C(=O)N1CCC[C@H]1C(=O)N[C@@H](Cc1ccccc1)C(=O)O [Angiotensin II]	314.38			collision cross section (N2) ([1]; [M+2H]2+): 353.79 Å²; collision cross section (N2) ([1]; [M+3H]3+): 436.24 Å²
C[N+](C)(C)CCO [Choline]		117.8		collision cross section (N2) ([3]; [M]+): 117 Å²; collision cross section (N2) ([4]; [M]+): 119 Å²
CCCCC/C=C\C/C=C\C/C=C\CCCCCCC(=O)O [Dihomo-gamma-Linolenic Acid]			183.02	
NC(N)=NCCC[C@H](N)C(=O)O [L-Arginine]	136.84	136.4	138.03	collision cross section (N2) ([4]; [M+Na]+): 147.8 Å²
CC[C@H](C)[C@H](N)C(=O)O [L-Isoleucine]	133.81		131.29	collision cross section (N2) ([4]; [M+H]+): 136.97 Å²
CSCC[C@H](N)C(=O)O [L-Methionine]	134.08			collision cross section (N2) ([4]; [M+H]+): 133.65 Å²
N[C@@H](Cc1ccccc1)C(=O)O [L-Phenylalanine]	141.28	140.3	141.29	collision cross section (N2) ([4]; [M+Na]+): 138.91 Å²
N[C@@H](Cc1ccc(O)cc1)C(=O)O [L-Tyrosine]	146.45	145.7	145.59	collision cross section (N2) ([4]; [M+Na]+): 143.97 Å²
CCCCCCCCCCCCCCCCC(=O)O [Margaric acid]			173.41	
CCCCCCCC/C=C\CCCCCCCC(=O)O [Oleic acid]			176.46	collision cross section (N2) ([2]; [M-H]-): 173.88 Å²
OC[C@H]1OC(O)[C@H](O)[C@@H](O)[C@@H]1O (stereo partly drawn) [a-D-Glucose]				collision cross section (N2) ([1]; [M+Na]+): 147.35 Å²

— the C3SDB collision cross section collection
